# In patent US9006232B2, “Pyrimidone derivatives” (Mitsubishi Tanabe Pharma Corporation, priority 2009, dated 2015):
# Molecular target: bovine cerebral TPK1 (Bos taurus, UniProt A0A059UE90)
# Test: Inhibitory activity against P-GS1 phosphorylation by bovine cerebral TPK1
# Assay type: biochemical
# Settings: P-GS1 phosphorylation, 41.7 μM [γ-32P] ATP, 25° C., 2 hours; read-out: IC50
# Procedure: Inhibitory Activity of the Medicament of the Present Invention Against P-GS1 Phosphorylation by Bovine Cerebral TPK1 […] The phosphorylation was started by adding ATP, and the reaction was conducted at 25° C. for 2 hours, and then stopped by adding 21% perchloric acid on ice cooling. The reaction mixture was centrifuged at 12,000 rpm for 5 minutes and adsorbed on P81 paper (Whatmann), and then the paper was washed four times with 75 mM phosphoric acid, three times with water and once with acetone. The paper was dried, and the residual radioactivity was measured using a liquid scintillation counter.
# Chain of bovine cerebral TPK1 (A0A059UE90 1-419): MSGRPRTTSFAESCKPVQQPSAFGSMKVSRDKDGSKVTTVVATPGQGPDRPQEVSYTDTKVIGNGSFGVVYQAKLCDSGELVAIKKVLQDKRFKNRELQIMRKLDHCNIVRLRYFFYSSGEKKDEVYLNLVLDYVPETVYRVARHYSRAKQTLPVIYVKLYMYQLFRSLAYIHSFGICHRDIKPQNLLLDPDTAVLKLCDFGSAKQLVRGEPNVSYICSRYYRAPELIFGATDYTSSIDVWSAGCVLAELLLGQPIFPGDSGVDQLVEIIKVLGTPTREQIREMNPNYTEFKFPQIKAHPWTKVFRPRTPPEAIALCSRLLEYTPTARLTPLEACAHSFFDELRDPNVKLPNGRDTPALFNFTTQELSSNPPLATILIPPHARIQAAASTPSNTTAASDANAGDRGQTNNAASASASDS
row,IC50 [nM],Compound
1,19.4,"Cn1c(OC2CCN(c3ccc(CN4CCOCC4)cc3)CC2)nc(-c2ccncn2)cc1=O [1.213, 1-Methyl-2-[1-(4-morpholin-4-ylmethyl-phenyl)piperidin-4-yloxy]-1H-[4,4′]bipyrimidinyl-6-one]"
2,9.4,"Cn1c(OC2CCN(c3ccc4c(c3)CNC4)CC2)nc(-c2ccncn2)cc1=O [1.225, 2-[1-(2,3-Dihydro-1H-isoindol-5-yl)piperidin-4-yloxy]-1-methyl-1H-[4,4′]bipyrimidinyl-6-one]"
3,76.1,"Cn1c(OC2CCCN(S(=O)(=O)c3ccccc3)C2)nc(-c2ccncn2)cc1=O (centres unmarked) [1.109, 2-(1-Benzenesulfonyl-piperidin-3-yloxy)-1-methyl-1H-[4,4′] bipyrimidinyl-6-one]"
4,39.8,"CN(C)Cc1ccc(C(=O)N2CCC(Oc3nc(-c4ccncn4)cc(=O)n3C)CC2)cc1 [Compound No. 1.601, 2-[1-(4-Dimethylaminomethyl-benzoyl)piperidin-4-yloxy]-1-methyl-1H-[4,4′]bipyrimidinyl-6-one]"
5,8.9,"Cn1c(OC2CCCN(c3cccc(F)c3)C2)nc(-c2ccncn2)cc1=O (centres unmarked) [1.104, 2-[1-(3-Fluoro-phenyl)piperidin-3-yloxy]-1-methyl-1H-[4,4′] bipyrimidinyl-6-one]"
6,61.4,"Cn1c(OC2CCCN(c3ccc(F)cc3)C2)nc(-c2ccncn2)cc1=O (centres unmarked) [1.105, 2-[1-(4-Fluoro-phenyl)piperidin-3-yloxy]-1-methyl-1H-[4,4′] bipyrimidinyl-6-one]"
7,1.5,"COc1cccc(N2CCCC(Oc3nc(-c4ccncn4)cc(=O)n3C)C2)c1 (centres unmarked) [1.106, 2-[1-(3-Methoxy-phenyl)piperidin-3-yloxy]-1-methyl-1H-[4,4′]bipyrimidinyl-6-one]"
8,37.6,"Cn1c(OC[C@@H]2CCCN2c2ccc(F)cc2)nc(-c2ccncn2)cc1=O [2.204, 2-[(2S)-1-(4-Fluoro-phenyl)pyrrolidin-2-ylmethoxy]-1-methyl-1H-[4,4′]bipyrimidinyl-6-one]"
9,941,"Cn1c(OC[C@H]2CCN(c3ccccc3)C2)nc(-c2ccncn2)cc1=O [2.209, 1-Methyl-2-[(3S)-1-phenyl-pyrrolidin-3-ylmethoxy]-1H-[4,4′] bipyrimidinyl-6-one]"
10,49,"Cn1c(OC2CCCN(c3ccccc3F)C2)nc(-c2ccncn2)cc1=O (centres unmarked) [1.103, 2-[1-(2-Fluoro-phenyl)piperidin-3-yloxy]-1-methyl-1H-[4,4′] bipyrimidinyl-6-one]"
11,56.4,"Cn1c(OC[C@H]2CCCN2C(=O)Oc2ccccc2)nc(-c2ccncn2)cc1=O [Compound No. 2.201, Phenyl (2R)-2-(1-methyl-6-oxo-1,6-dihydro-[4,4′]bipyrimidinyl-2-yloxymethyl)pyrrolidine-1-carboxylate]"
12,100,"Cn1c(OC2CCCC2)nc(-c2ccncn2)cc1=O [1.804, 2-Cyclopentyloxy-1-methyl-1H-[4,4′]bipyrimidinyl-6-one]"
13,140,"Cn1c(OC2CCN(C(=O)OCc3ccccc3)CC2)nc(-c2ccncn2)cc1=O [1.110, Benzyl 4-(1-methyl-6-oxo-1,6-dihydro-[4,4′]bipyrimidinyl-2-yloxy) piperidine-1-carboxylate]"
14,158,"Cn1c(OC[C@H]2CCCN2c2ccc(F)cc2)nc(-c2ccncn2)cc1=O [2.202, 2-[(2R)-1-(4-Fluoro-phenyl)pyrrolidin-2-ylmethoxy]-1-methyl-1H-[4,4′]bipyrimidinyl-6-one]"
15,9.4,"Cn1c(OC2CCN(c3cccc(CN4CCCCC4)c3)CC2)nc(-c2ccncn2)cc1=O [1.223, 1-Methyl-2-[1-(3-piperidin-1-ylmethyl-phenyl)piperidin-4-yloxy]-1H-[4,4′]bipyrimidinyl-6-one]"
16,12.8,"Cn1c(OC2CCN(c3ccc(CN4CCCCC4)cc3)C2)nc(-c2ccncn2)cc1=O (centres unmarked) [1.231, 1-Methyl-2-[1-(4-piperidin-1-ylmethyl-phenyl)pyrrolidin-3-yloxy]-1H-[4,4′]bipyrimidinyl-6-one]"

# Second part, the compound before the results:
row,Compound,IC50 [nM]
1,"CN1CCC(CCN2CCC(Oc3nc(-c4ccncn4)cc(=O)n3C)CC2)CC1 [1.503, 1-Methyl-2-{1-[2-(1-methyl-piperidin-4-yl)ethyl]piperidin-4-yloxy)-1H-[4,4′]bipyrimidinyl-6-one]",150
2,"Cn1c(OCCOc2ccccc2)nc(-c2ccncc2)cc1=O [1.805, 3-Methyl-2-(2-phenoxy-ethoxy)-6-pyridin-4-yl-3H-pyrimidin-4-one]",370
3,"Cn1c(OC2CCN(c3ccccc3CN3Cc4ccccc4C3)CC2)nc(-c2ccncn2)cc1=O [1.304, 2-{1-[2-(1,3-Dihydro-isoindol-2-ylmethyl)phenyl]piperidin-4-yloxy}-1-methyl-1H-[4,4′] bipyrimidinyl-6-one]",25.2
4,"Cn1c(OCC(OC2CCCCO2)c2ccccc2)nc(-c2ccncn2)cc1=O (centres unmarked) [Compound No. 2.502, 1-Methyl-2-[2-phenyl-2-(tetrahydro-pyran-2-yloxy)ethoxy]-1H-[4,4′]bipyrimidinyl-6-one]",349
5,"Cn1c(OC2CCN(c3ccc(-c4ccncc4)cc3)CC2)nc(-c2ccncc2F)cc1=O [1.207, 6-(3-Fluoro-pyridin-4-yl)-3-methyl-2-[1-(4-pyridin-4-yl-phenyl)piperidin-4-yloxy]-3H-pyrimidin-4-one]",32.6
6,"Cn1c(OCC2CCN(c3ccc(CN4CCCCC4)cc3)CC2)nc(-c2ccncc2)cc1=O [1.232, 3-Methyl-2-[1-(4-piperidin-1-ylmethyl-phenyl)piperidin-4-ylmethoxy]-6-pyridin-4-yl-3H-pyrimidin-4-one]",162
7,"CN1CCN(Cc2ccc([C@H]3CC[C@H](Oc4nc(-c5ccncn5)cc(=O)n4C)CC3)cc2)CC1 [Compound No. 1.903, 1-Methyl-2-{trans-4-[4-(4-methyl-piperazin-1-ylmethyl)phenyl]cyclohexyloxy}-1H-[4,4′] bipyrimidinyl-6-one]",7.8
8,"CN1CCN(Cc2ccc(N3CCC(Oc4nc(-c5ccncn5)cc(=O)n4C)CC3)cc2)CC1 [Compound No. 1.203, 1-Methyl-2-{1-[4-(4-methyl-piperazin-1-ylmethyl)phenyl]piperidin-4-yloxy}-1H-[4,4′] bipyrimidinyl-6-one]",6.4
9,"Cn1c(OCCc2ccccc2)nc(-c2ccncc2)cc1=O [2.002, 3-Methyl-2-phenethyloxy-6-pyridin-4-yl-3H-pyrimidin-4-one]",200
10,"Cn1c(OCCSc2ccccc2)nc(-c2ccncc2)cc1=O [1.806, 3-Methyl-2-(2-phenylsulfanyl-ethoxy)-6-pyridin-4-yl-3H-pyrimidin-4-one]",55
11,"Cn1c(OC[C@H]2CCN(c3ccccc3)C2)nc(-c2ccncc2F)cc1=O [2.210, 6-(3-Fluoro-pyridin-4-yl)-3-methyl-2-[(3S)-1-phenyl-pyrrolidin-3-ylmethoxy]-3H-pyrimidin-4-one]",134
12,"CN1CCN(Cc2ccccc2N2CCC(Oc3nc(-c4ccncn4)cc(=O)n3C)CC2)CC1 [1.302, 1-Methyl-2-{1-[2-(4-methyl-piperazin-1-ylmethyl)phenyl]piperidin-4-yloxy}-1H-[4,4′]bipyrimidinyl-6-one]",14.9
13,"Cn1c(OC2CCN(c3ccc(CN4CCN(C(=O)OC(C)(C)C)CC4)cc3)CC2)nc(-c2ccncn2)cc1=O [Compound No. 1.201, tert-Butyl 4-{4-[4-(1-methyl-6-oxo-1,6-dihydro-[4,4′]bipyrimidinyl-2-yloxy)piperidin-1-yl]benzyl}piperazine-1-carboxylate]",19.1
